Laboratory results: patent US11427567B2, “Imidazolyl pyrimidinylamine compounds as CDK2 inhibitors” (Incyte Corporation, priority 2019, dated 2022)

Molecular target: CDK2/Cyclin E1 (Homo sapiens (Human), UniProt P24941)
Assay: CDK2/Cyclin E1 HTRF enzyme activity assay (Example A)
Format: biochemical
Conditions: 1 mM ATP
Description: Assays were conducted in white 384-well polystyrene plates in a final reaction volume of 8 μL. […] HTRF signals were read after 1 hour at room temperature on a PHERAstar FS plate reader (BMG Labtech). Data was analyzed with IDBS XLFit and GraphPad Prism 5.0 software using a three or four parameter dose response curve to determine IC50 for each compound.

| SMILES | IC50 |
| --- | --- |
| C[C@@H]1CN(c2ccc(-n3cnc(-c4nc(NC5CCN(S(C)(=O)=O)CC5)ncc4C(F)(F)F)c3)c(Cl)c2)CCN1 [Example 141, (R)-4-(1-(2-Chloro-4-(3-methyl-piperazin-1-yl)-phenyl)-1H-imidazol-4-yl)-N-(1-(methyl-sulfonyl)piperidin-4-yl)-5-(trifluoro-methyl)pyrimidin-2-amine] | ≤ 50 nM |
| Cc1nc(-c2nc(NC3CCN(S(C)(=O)=O)CC3)ncc2C(F)(F)F)cn1-c1ccc(N2CCC[C@H](N(C)C)C2)cc1F [Example 106, (S)-4-(1-(4-(3-(Dimethylamino)-piperidin-1-yl)-2-fluorophenyl)-2-methyl-1H-imidazol-4-yl)-N-(1-(methyl-sulfonyl)piperidin-4-yl)-5-(trifluoro-methyl)pyrimidin-2-amine] | ≤ 50 nM |
| CC(C)NCc1ccc(-n2cnc(-c3nc(N[C@@H]4CCN(S(C)(=O)=O)C[C@H]4F)ncc3C(F)(F)F)c2)c(Cl)c1 [Example 400, 4-(1-(2-Chloro-4-((isopropylamino)methyl)phenyl)-1H-imidazol-4-yl)-N-((3R,4R)-3-fluoro-1-(methylsulfonyl)piperidin-4-yl)-5-(trifluoromethyl)pyrimidin-2-amine] | ≤ 50 nM |
| CCS(=O)(=O)N1CCC(Nc2ncc(C(F)(F)F)c(-c3cn(-c4cccnc4C#N)cn3)n2)CC1 [Example 89, 3-(4-(2-((1-(Ethylsulfonyl)piperidin-4-yl)amino)-5-(trifluoromethyl)pyrimidin-4-yl)-1H-imidazol-1-yl)picolinonitrile] | ≤ 50 nM |
| Cc1nc(-c2nc(NC3CCN(S(C)(=O)=O)CC3)ncc2C(F)(F)F)cn1-c1ccc(N2CC[C@H](O)C2)cc1F [Example 116, (S)-1-(3-Fluoro-4-(2-methyl-4-(2-((1-(methylsulfonyl)-piperidin-4-yl)-amino)-5-(trifluoro-methyl)pyrimidin-4-yl)-1H-imidazol-1-yl)phenyl)pyrrolidin-3-ol] | ≤ 50 nM |
| CN1CCN(c2ccc(-n3cnc(-c4nc(NC5CCN(S(C)(=O)=O)CC5)ncc4C(F)(F)F)c3)c(Cl)c2)CC1 [Example 148, 4-(1-(2-Chloro-4-(4-methylpiperazin-1-yl)phenyl)-1H-imidazol-4-yl)-N-(1-(methylsulfonyl)-piperidin-4-yl)-5-(trifluoromethyl)-pyrimidin-2-amine] | ≤ 50 nM |
| Cc1ccc(-n2cnc(-c3nc(N[C@H]4CCN(S(=O)(=O)c5cnc(N)nc5)C[C@H]4C)ncc3C(F)(F)F)c2)c(C#N)n1 [Example 153, 3-(4-(2-(((3R,4S)-1-((2-Amino-pyrimidin-5-yl)-sulfonyl)-3-methylpiperidin-4-yl)amino)-5-(trifluoromethyl)-pyrimidin-4-yl)-1H-imidazol-1-yl)-6-methyl-picolinonitrile] | ≤ 50 nM |
| CS(=O)(=O)N1CCC(Nc2ncc(C(F)(F)F)c(-c3cn(-c4cccc(F)c4C#N)cn3)n2)CC1 [Example 56, 2-Fluoro-6-(4-(2-((1-(methylsulfonyl)piperidin-4-yl)amino)-5-(trifluoromethyl)pyrimidin-4-yl)-1H-imidazol-1-yl)benzonitrile] | ≤ 50 nM |
| CC(c1ccc(-n2cnc(-c3nc(NC4CCN(S(C)(=O)=O)CC4)ncc3C(F)(F)F)c2)c(Cl)c1)N1CCC1 (centres unmarked) [Example 274, 4-(1-(4-(1-(Azetidin-1-yl)ethyl)-2-chlorophenyl)-1H-imidazol-4-yl)-N-(1-(methylsulfonyl)piperidin-4-yl)-5-(trifluoromethyl)pyrimidin-2-amine] | ≤ 50 nM |
| Cc1nc(-c2nc(NC3CCN(S(C)(=O)=O)CC3)ncc2C(F)(F)F)cn1-c1ccc(N2CCC(C)(N3CCCC3)CC2)cc1F [Example 414, 4-(1-(2-Fluoro-4-(4-methyl-4-(pyrrolidin-1-yl)piperidin-1-yl)phenyl)-2-methyl-1H-imidazol-4-yl)-N-(1-(methylsulfonyl)piperidin-4-yl)-5-(trifluoromethyl)pyrimidin-2-amine] | ≤ 50 nM |
| CNCc1ccc(-n2cnc(-c3nc(NC4CCN(S(C)(=O)=O)CC4)ncc3C(F)(F)F)c2)c(C(F)(F)F)c1 [Example 254, 4-(1-(4-((Methylamino)methyl)-2-(trifluoromethyl)phenyl)-1H-imidazol-4-yl)-N-(1-(methylsulfonyl)piperidin-4-yl)-5-(trifluoromethyl)pyrimidin-2-amine] | ≤ 50 nM |

Now from value to compound:

| IC50 | SMILES |
| --- | --- |
| ≤ 50 nM | CCN(C)CCCc1ccc(-n2cc(-c3nc(NC4CCN(S(C)(=O)=O)CC4)ncc3C(F)(F)F)nc2C)c(F)c1 [Example 460, 4-(1-(4-(3-(Ethyl(methyl)amino)propyl)-2-fluorophenyl)-2-methyl-1H-imidazol-4-yl)-N-(1-(methylsulfonyl)piperidin-4-yl)-5-(trifluoromethyl)pyrimidin-2-amine] |
| ≤ 50 nM | CS(=O)(=O)N1CCC(Nc2ncc(C(F)(F)F)c(-c3cn(-c4ccc(Cn5cnnc5)cc4Cl)cn3)n2)CC1 [Example 239, 4-(1-(4-((4H-1,2,4-Triazol-4-yl)methyl)-2-chlorophenyl)-1H-imidazol-4-yl)-N-(1-(methylsulfonyl)piperidin-4-yl)-5-(trifluoromethyl)pyrimidin-2-amine] |
| ≤ 50 nM | Cc1nc(-c2nc(NC3CCN(S(C)(=O)=O)CC3)ncc2C(F)(F)F)cn1-c1ccc(CCN2CCC2)cc1F [Example 416, 4-(1-(4-(2-(Azetidin-1-yl)ethyl)-2-fluorophenyl)-2-methyl-1H-imidazol-4-yl)-N-(1-(methylsulfonyl)piperidin-4-yl)-5-(trifluoromethyl)pyrimidin-2-amine] |
| ≤ 50 nM | CCN1CC(c2ccc(-n3cnc(-c4nc(NC5CCN(S(C)(=O)=O)CC5)ncc4C(F)(F)F)c3)c(C#N)c2)C1 [Example 429, 5-(1-Ethylazetidin-3-yl)-2-(4-(2-((1-(methylsulfonyl)piperidin-4-yl)amino)-5-(trifluoromethyl)pyrimidin-4-yl)-1H-imidazol-1-yl)benzonitrile] |
| ≤ 50 nM | Cc1nc(-c2nc(N[C@H]3CCN(S(C)(=O)=O)C[C@H]3F)ncc2C(F)(F)F)cn1-c1ccc(C#N)cc1F [Example 299, 3-Fluoro-4-(4-(2-(((3R,4S)-3-fluoro-1-(methylsulfonyl)piperidin-4-yl)amino)-5-(trifluoromethyl)pyrimidin-4-yl)-2-methyl-1H-imidazol-1-yl)benzonitrile] |
| ≤ 50 nM | Cc1ccc(-n2cnc(-c3nc(N[C@H]4CCN(S(=O)(=O)c5ccn(C)n5)C[C@H]4C)ncc3C(F)(F)F)c2)c(C#N)n1 [Example 154, 6-Methyl-3-(4-(2-(((3R,4S)-3-methyl-1-((1-methyl-1H-pyrazol-3-yl)-sulfonyl)piperidin-4-yl)amino)-5-(trifluoromethyl)-pyrimidin-4-yl)-1H-imidazol-1-yl)picolinonitrile] |
| ≤ 50 nM | CS(=O)(=O)N1CCC(Nc2ncc(C(F)(F)F)c(-c3ncn(-c4ccc(C#N)cc4Cl)c3Cl)n2)CC1 [Example 170, 3-Chloro-4-(5-chloro-4-(2-((1-(methylsulfonyl)piperidin-4-yl)amino)-5-(trifluoromethyl)pyrimidin-4-yl)-1H-imidazol-1-yl)benzonitrile] |
| ≤ 50 nM | CCN1CCN(Cc2cc(F)c(-n3cnc(-c4nc(N[C@@H]5CCN(S(C)(=O)=O)C[C@H]5F)ncc4C(F)(F)F)c3)c(Cl)c2)CC1 [Example 403, 4-(1-(2-Chloro-4-((4-ethylpiperazin-1-yl)methyl)-6-fluorophenyl)-1H-imidazol-4-yl)-N-((3R,4R)-3-fluoro-1-(methylsulfonyl)piperidin-4-yl)-5-(trifluoromethyl)pyrimidin-2-amine] |
| ≤ 50 nM | CN1CCN(Cc2ccc(-n3cnc(-c4nc(NC5CCN(S(C)(=O)=O)CC5)ncc4C(F)(F)F)c3)c(Cl)c2)C1=O [Example 453, 1-(3-Chloro-4-(4-(2-((1-(methylsulfonyl)piperidin-4-yl)amino)-5-(trifluoromethyl)pyrimidin-4-yl)-1H-imidazol-1-yl)benzyl)-3-methylimidazolidin-2-one] |
| ≤ 50 nM | CS(=O)(=O)N1CCC(Nc2ncc(C(F)(F)F)c(-c3cn(-c4cccc(CCNC5CC5)c4Cl)cn3)n2)CC1 [Example 371, 4-(1-(2-Chloro-3-(2-(cyclopropylamino)eth-yl)phenyl)-1H-imidazol-4-yl)-N-(1-(methylsulfonyl)piperidin-4-yl)-5-(trifluoromethyl)pyrimi-din-2-amine] |
| ≤ 50 nM | CC(C)NCc1cccc(-n2cnc(-c3nc(NC4CCN(S(C)(=O)=O)CC4)ncc3C(F)(F)F)c2)c1Cl [Example 360, 4-(1-(2-Chloro-3-((isopropylamino)meth-yl)phenyl)-1H-imidazol-4-yl)-N-(1-(methylsulfonyl)piperidin-4-yl)-5-(trifluoromethyl)pyrimi-din-2-amine] |
| ≤ 50 nM | CCNCc1cc(F)c(-n2cnc(-c3nc(N[C@H]4CCN(S(C)(=O)=O)C[C@H]4F)ncc3C(F)(F)F)c2)c(F)c1 [Example 444, 4-(1-(4-((Ethylamino)methyl)-2,6-difluorophenyl)-1H-imidazol-4-yl)-N-((3R,4S)-3-fluoro-1-(methylsulfonyl)piperidin-4-yl)-5-(trifluoromethyl)pyrimidin-2-amine] |
| ≤ 50 nM | C[C@]1(O)CCN(Cc2ccc(-n3cnc(-c4nc(NC5CCN(S(C)(=O)=O)CC5)ncc4C(F)(F)F)c3)c(Cl)c2)C1 [Example 204, (S)-1-(3-Chloro-4-(4-(2-((1-(methyl-sulfonyl)piperidin-4-yl)amino)-5-(trifluoromethyl)-pyrimidin-4-yl)-1H-imidazol-1-yl)-benzyl)-3-methyl-pyrrolidin-3-ol] |
| ≤ 50 nM | CC1(O)CN(CCc2cccc(-n3cnc(-c4nc(NC5CCN(S(C)(=O)=O)CC5)ncc4C(F)(F)F)c3)c2Cl)C1 [Example 372, 1-(2-Chloro-3-(4-(2-((1-(methylsulfonyl)piperidin-4-yl)amino)-5-(trifluoromethyl)pyrimi-din-4-yl)-1H-imidazol-1-yl)phenethyl)-3-methylazetidin-3-ol] |
| ≤ 50 nM | CN1CC(c2ccc(-n3cnc(-c4nc(NC5CCN(S(C)(=O)=O)CC5)ncc4C(F)(F)F)c3)c(C#N)c2)C1 [Example 428, 5-(1-Methylazetidin-3-yl)-2-(4-(2-((1-(methylsulfonyl)piperidin-4-yl)amino)-5-(trifluoromethyl)pyrimidin-4-yl)-1H-imidazol-1-yl)benzonitrile] |
